In PubChem BioAssay (NCI):
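Growth conditions: 96-well plates. Treatment: test compound, 48 hours, 5 concentrations. Analysis: linear interpolation between bracketing concentrations; unreached endpoints set to highest concentration. Here, GI50 denotes the concentration required for 50% inhibition of growth. TGI: concentration producing complete growth inhibition.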

What was measured:
Experiment in all cases: NCI anticancer screen, dose series, 48 h
[1] = tested on: 786-0 renal
[2] = tested on: A498 renal
[3] = tested on: A549 NSCLC
[4] = tested on: ACHN renal
[5] = tested on: BT-549 breast
[6] = tested on: CAKI-1 renal
[7] = tested on: CCRF-CEM leukemia
[8] = tested on: COLO 205 colon
[9] = tested on: DU-145 prostate
[10] = tested on: EKVX NSCLC
[11] = tested on: HCC-2998 colon
[12] = tested on: HCT-116 colon
[13] = tested on: HCT-15 colon
[14] = tested on: HL-60(TB) leukemia
[15] = tested on: HOP-62 NSCLC
[16] = tested on: HOP-92 NSCLC
[17] = tested on: HS 578T breast
[18] = tested on: HT29 colon
[19] = tested on: IGROV1 ovarian
[20] = tested on: K-562 leukemia
[21] = tested on: KM12 colon
[22] = tested on: LOX IMVI melanoma
[23] = tested on: M14 melanoma
[24] = tested on: MALME-3M melanoma
[25] = tested on: MCF7 breast
[26] = tested on: MDA-MB-231 breast
[27] = tested on: MDA-MB-435
[28] = tested on: MOLT-4 leukemia
[29] = tested on: NCI-H226 lung
[30] = tested on: NCI-H23 lung
[31] = tested on: NCI-H460 lung
[32] = tested on: NCI-H522 lung
[33] = tested on: NCI/ADR-RES ovarian
[34] = tested on: OVCAR-3 ovarian
[35] = tested on: OVCAR-4 ovarian
[36] = tested on: OVCAR-5 ovarian
[37] = tested on: OVCAR-8 ovarian
[38] = tested on: PC-3 prostate
[39] = tested on: RPMI-8226 leukemia
[40] = tested on: RXF 393 renal
[41] = tested on: SF-268 CNS
[42] = tested on: SF-295 CNS
[43] = tested on: SF-539 CNS
[44] = tested on: SK-MEL-2 melanoma
[45] = tested on: SK-MEL-28 melanoma
[46] = tested on: SK-MEL-5 melanoma
[47] = tested on: SK-OV-3 ovarian
[48] = tested on: SN12C renal
[49] = tested on: SNB-19 CNS
[50] = tested on: SNB-75 CNS
[51] = tested on: SR leukemia
[52] = tested on: SW-620 colon
[53] = tested on: T-47D breast
[54] = tested on: TK-10 renal
[55] = tested on: U251 CNS
[56] = tested on: UACC-257 melanoma
[57] = tested on: UACC-62 melanoma
[58] = tested on: UO-31 renal

CC/C=C/C/C=C/C/C=C/C/C=C/C/C=C/C/C=C/CCC(=O)Nc1ccn([C@@H]2O[C@H](CO)[C@@H](O)C2(F)F)c(=O)n1
GI50 [1]: 0.0141 µM | TGI [1]: 25.5 µM | GI50 [2]: 0.0566 µM | TGI [2]: 44.4 µM | GI50 [3]: 0.0369 µM | TGI [3]: 20.4 µM | GI50 [4]: < 0.0132 µM | TGI [4]: 14.6 µM | GI50 [5]: 0.681 µM | TGI [5]: 19.8 µM | GI50 [6]: 0.0341 µM | TGI [6]: 14.8 µM | GI50 [7]: 0.0537 µM | TGI [7]: 15.1 µM | GI50 [8]: 0.187 µM | TGI [8]: 19.1 µM | GI50 [9]: 0.043 µM | TGI [9]: 24.9 µM | GI50 [10]: 6.14 µM | TGI [10]: > 58.9 µM | GI50 [11]: 14.9 µM | TGI [11]: > 64.4 µM | GI50 [12]: 0.0873 µM | TGI [12]: 29.8 µM | GI50 [13]: 1.82 µM | TGI [13]: 41.3 µM | GI50 [14]: 0.059 µM | TGI [14]: 9.24 µM | GI50 [15]: 0.0293 µM | TGI [15]: 6.55 µM | GI50 [16]: 0.652 µM | TGI [16]: 30.5 µM | GI50 [17]: 46.4 µM | TGI [17]: > 76.9 µM | GI50 [18]: 0.138 µM | TGI [18]: 19.5 µM | GI50 [19]: 4.07 µM | TGI [19]: 30.7 µM | GI50 [20]: 0.16 µM | TGI [20]: 33.4 µM | GI50 [21]: 1.42 µM | TGI [21]: 39.8 µM | GI50 [22]: 0.0512 µM | TGI [22]: 0.832 µM | GI50 [23]: 0.0303 µM | TGI [23]: 0.212 µM | GI50 [24]: 9.33 µM | TGI [24]: 24.2 µM | TGI [25]: 17.2 µM | GI50 [26]: 7.65 µM | TGI [26]: 28.9 µM | GI50 [27]: 0.2 µM | TGI [27]: 17.5 µM | GI50 [28]: 0.0802 µM | TGI [28]: 3.55 µM | GI50 [29]: 0.228 µM | TGI [29]: 12.1 µM | GI50 [30]: 0.019 µM | TGI [30]: 9.3 µM | GI50 [31]: 0.0199 µM | TGI [31]: 12.1 µM | GI50 [32]: 0.261 µM | TGI [32]: 37.7 µM | GI50 [33]: 0.0386 µM | TGI [33]: 16.9 µM | GI50 [34]: 4.79 µM | TGI [34]: 25.5 µM | GI50 [35]: 17.5 µM | TGI [35]: 65.5 µM | GI50 [36]: 2.83 µM | TGI [36]: > 60.8 µM | GI50 [37]: 0.0345 µM | TGI [37]: 9.55 µM | GI50 [38]: 6.65 µM | TGI [38]: 52.3 µM | GI50 [39]: 0.245 µM | TGI [39]: 39 µM | GI50 [40]: 0.169 µM | TGI [40]: 18.3 µM | GI50 [41]: 0.0631 µM | TGI [41]: 26.3 µM | GI50 [42]: 0.11 µM | TGI [42]: 19.8 µM | GI50 [43]: 0.0425 µM | TGI [43]: 5.71 µM | GI50 [44]: 35.9 µM | TGI [44]: > 66.8 µM | GI50 [45]: 11.5 µM | TGI [45]: 25.8 µM | GI50 [46]: 0.348 µM | TGI [46]: 17.8 µM | GI50 [47]: 0.14 µM | TGI [47]: > 52.2 µM | GI50 [48]: 0.126 µM | TGI [48]: 8.78 µM | GI50 [49]: 0.0278 µM | TGI [49]: 26.6 µM | GI50 [50]: 0.863 µM | TGI [50]: > 50.1 µM | GI50 [51]: 0.0387 µM | TGI [51]: 8.3 µM | GI50 [52]: 0.148 µM | TGI [52]: 47.6 µM | GI50 [53]: 0.174 µM | TGI [53]: 54.4 µM | GI50 [54]: 39.1 µM | TGI [54]: > 66.5 µM | GI50 [55]: 0.0331 µM | TGI [55]: 18.2 µM | GI50 [56]: 5.05 µM | TGI [56]: 46.4 µM | GI50 [57]: 0.0499 µM | TGI [57]: 11.9 µM | GI50 [58]: 0.0486 µM | TGI [58]: 4.28 µM
